Test results reported in US20240217951A1, “PCSK9 INHIBITORS AND METHODS OF USE THEREOF” (AstraZeneca AB, priority 2022, published 2024).

Experiments:
[1] = clinical trials, patients; alirocumab compared to placebo; cited from earlier work
[2] = molecular target: T1, human PCSK9 (Homo sapiens, UniProt Q8NBP7); experiment: Assay 2 - Biophysical human PCSK9 assay (SPR, Biacore); assay type: binding; details: geometric mean; SPR at 30° C; read-out: Assay 2 (PCSK9 BIAcore DBA CR) GMean Kd
T1 construct: biotinylated human PCSK9 (31-692)-Avi-His6; His6 (C)
T1 sequence (Q8NBP7 31-692): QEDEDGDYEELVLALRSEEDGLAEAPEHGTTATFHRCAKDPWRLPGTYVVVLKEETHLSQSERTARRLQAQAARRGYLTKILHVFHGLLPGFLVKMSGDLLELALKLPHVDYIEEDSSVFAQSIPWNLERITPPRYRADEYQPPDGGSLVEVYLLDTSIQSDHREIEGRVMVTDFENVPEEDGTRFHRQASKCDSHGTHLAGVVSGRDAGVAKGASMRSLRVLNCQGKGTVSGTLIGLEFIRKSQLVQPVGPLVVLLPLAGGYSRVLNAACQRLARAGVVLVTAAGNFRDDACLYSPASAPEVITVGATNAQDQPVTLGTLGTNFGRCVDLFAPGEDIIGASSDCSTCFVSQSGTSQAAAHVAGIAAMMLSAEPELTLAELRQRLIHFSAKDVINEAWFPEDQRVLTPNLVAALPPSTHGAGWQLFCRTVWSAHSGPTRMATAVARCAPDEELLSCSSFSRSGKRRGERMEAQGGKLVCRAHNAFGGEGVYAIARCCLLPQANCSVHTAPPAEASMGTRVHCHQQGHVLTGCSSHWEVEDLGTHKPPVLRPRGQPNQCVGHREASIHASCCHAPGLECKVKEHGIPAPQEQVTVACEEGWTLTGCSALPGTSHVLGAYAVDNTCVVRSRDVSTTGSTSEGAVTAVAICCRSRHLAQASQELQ
Experimental: Assay 2—Biophysical Human PCSK9 Assay
The SPR binding experiments were performed on a Biacore S200 optical biosensor unit at 30° C. A Series S Sensor Chip SA that is designed to bind biotinylated molecules for interaction analysis in Biacore systems was equilibrated at room temperature prior to use. The running buffer for protein tethering and subsequent ligand binding experiments was 10 mM HEPES pH 7.4, 150 mM NaCl, 0.05% (v/v) Tween 20 pH 7.4.
For the surface tethering of PCSK9, biotinylated human PCSK9 (31-692)-Avi-His6 at a concentration of 0.5 mg/mL was used. Prior to the surface tethering, the surface was exposed to a solution of 50 mM NaOH, 500 mM NaCl via 3 consecutive injections of this solution with a contact time of 60 s and a flowrate of 10 μL min^−1 to remove non-conjugated streptavidin. The PCSK9 protein was diluted to a concentration of 20 μg/mL using running buffer and injected with a contact time of 180-300 s and a flowrate of 10 μL min^−1 over a single flow channel (typically flow channel 2 or flow channel 4) with the aim to achieve protein capture levels of >5000 response units (RU). Remaining biotin binding sites were blocked via 2 consecutive injections of a 10 μM D-biotin solution in running buffer with a contact time of 60 s and a flowrate of 10 μL min^−1 over all flow-channels. Flow-channels 1 and 3 typically served as a reference surface throughout the subsequent binding experiments.
The binding experiments were all performed at a flow rate of 30 PL min^−1 and by employing the method of single-cycle kinetics. This approach involves the sequential injection of a compound concentration series without regeneration steps. A contact time between 90-150 s was selected, which was followed by a 40 min dissociation phase to allow for a proper estimation of the dissociation rate constant. Test compounds were delivered in DMSO at a concentration of 10 mM and a digital dispenser HP D300 was used to set up the compound concentration series using 6 concentrations. The tested concentrations have been 30, 100, 300, 1000, 3000 and 10000 nM. Prior to injecting any compound, the surfaces were equilibrated by injecting running buffer over them in three separate pulses. The data collection rate was set to 10 Hz.
The raw sensorgrams of the compound injections were first subjected to reference subtraction (subtracting the signal from flow channel 1 and/or 3 from the signal from channels 2 and/or 4 respectively) and then blank subtraction (subtracting the signal from injecting DMSO controls from the reference subtracted data). The resulting double-referenced sensorgrams were then fitted using a 1:1 binding interaction model using the manufactures software package to extract kinetic- and affinity data. Active compounds have been defined by creating a detectable binding signal at the highest compound concentration ([…]) of 3 RUs. Kinetic- and affinity data on active compounds are only provided for those compounds where the binding signal at the highest compound concentration ([…]) is 50% of the theoretical maximum binding signal for a 1:1 binding interaction (Rmax, typically between 15-20 RUs) in order to enable a proper fitting of the data.

[3] = molecular target: T2, potassium ion channel hERG (human Ether-á-go-go-Related Gene) (Homo sapiens, UniProt Q12809); experiment: Assay 5 - hERG assay (SyncroPatch 384PE patch clamp, CHO cells); assay type: cell-based; details: geometric mean; CHO cells over-expressing hERG; read-out: Assay 5 (hERG Hu CHO IF EPh CR-Syncro) GMean IC50
T2 construct: expressed in transfected cells; host or cells: Chinese hamster ovary K1 (CHO)
T2 sequence (Q12809 whole entry): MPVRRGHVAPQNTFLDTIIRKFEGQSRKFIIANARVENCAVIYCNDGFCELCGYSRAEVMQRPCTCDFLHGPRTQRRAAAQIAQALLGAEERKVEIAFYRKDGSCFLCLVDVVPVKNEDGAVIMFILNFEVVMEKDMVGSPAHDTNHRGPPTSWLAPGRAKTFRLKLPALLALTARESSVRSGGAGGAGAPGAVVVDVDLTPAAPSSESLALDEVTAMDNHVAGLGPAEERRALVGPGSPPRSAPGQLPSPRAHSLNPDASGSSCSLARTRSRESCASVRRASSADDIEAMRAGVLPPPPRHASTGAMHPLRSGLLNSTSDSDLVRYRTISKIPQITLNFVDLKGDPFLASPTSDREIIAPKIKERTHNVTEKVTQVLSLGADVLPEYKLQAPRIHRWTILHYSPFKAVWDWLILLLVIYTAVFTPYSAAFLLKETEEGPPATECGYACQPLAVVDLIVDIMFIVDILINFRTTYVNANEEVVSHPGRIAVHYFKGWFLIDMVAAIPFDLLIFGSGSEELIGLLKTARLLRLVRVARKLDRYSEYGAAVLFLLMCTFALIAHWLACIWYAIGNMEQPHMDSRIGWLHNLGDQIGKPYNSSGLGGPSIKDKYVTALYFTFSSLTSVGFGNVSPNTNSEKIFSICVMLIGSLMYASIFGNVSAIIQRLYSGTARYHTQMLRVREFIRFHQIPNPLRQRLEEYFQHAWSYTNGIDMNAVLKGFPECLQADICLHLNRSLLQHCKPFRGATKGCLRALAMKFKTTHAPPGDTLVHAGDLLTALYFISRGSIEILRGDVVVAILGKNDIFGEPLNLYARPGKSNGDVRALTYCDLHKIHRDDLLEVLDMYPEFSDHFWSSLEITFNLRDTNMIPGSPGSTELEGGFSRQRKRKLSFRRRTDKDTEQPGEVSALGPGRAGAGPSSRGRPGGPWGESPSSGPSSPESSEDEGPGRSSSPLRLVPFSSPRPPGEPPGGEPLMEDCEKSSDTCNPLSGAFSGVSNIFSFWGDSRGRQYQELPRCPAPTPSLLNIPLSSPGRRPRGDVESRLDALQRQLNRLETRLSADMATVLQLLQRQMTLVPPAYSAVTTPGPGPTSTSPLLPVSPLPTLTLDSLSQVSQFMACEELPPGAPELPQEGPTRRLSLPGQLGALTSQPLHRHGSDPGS
Outline: (§1)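 Automated high-throughput patch clamp on CHO-K1 cells overexpressing hERG at room temperature, KF/KCl internal with escin, NMDG-containing external at pH 7.4. Six-point cumulative compound addition, 0.33% DMSO final; wells kept only with seal >30 MΩ, Z′ >0.4 and current >0.2 nA.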

[4] = molecular target: GSK3β (Glycogen synthase kinase-3 beta) (Homo sapiens, UniProt P49841); experiment: Assay 6 - GSK3β assay (ThermoFisher Z-Lyte); assay type: biochemical; details: geometric mean; ATP Conc: 10 μM; read-out: Assay 6 (GSK3β FRET-Z-Lyte CR) GMean IC50 (μM) ATP Conc: 10
GSK3β (Glycogen synthase kinase-3 beta), sequence (P49841 whole entry): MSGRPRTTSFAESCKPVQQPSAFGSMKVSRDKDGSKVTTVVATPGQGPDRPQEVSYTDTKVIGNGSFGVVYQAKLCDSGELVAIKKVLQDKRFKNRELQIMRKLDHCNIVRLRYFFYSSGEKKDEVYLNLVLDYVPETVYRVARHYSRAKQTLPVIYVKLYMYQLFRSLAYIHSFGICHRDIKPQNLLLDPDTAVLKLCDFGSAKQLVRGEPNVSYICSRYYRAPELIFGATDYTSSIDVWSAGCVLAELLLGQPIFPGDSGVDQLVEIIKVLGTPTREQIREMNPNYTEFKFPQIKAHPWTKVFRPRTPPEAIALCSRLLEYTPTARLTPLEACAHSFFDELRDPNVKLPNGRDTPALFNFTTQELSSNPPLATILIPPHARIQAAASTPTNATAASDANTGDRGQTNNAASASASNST
Outline: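 Z-Lyte fluorescence kinase assay with 0.22-0.92 ng GSK3β and 2 μM Ser/Thr 09 peptide in 50 mM HEPES pH 7.5, 10 mM MgCl2, 1 mM EGTA, 0.01% BRIJ-35. Kinase reaction 60 min at room temperature, then 60 min development. 10-point 3-fold titration from 10 μM in 1% DMSO, fitted to a sigmoidal dose-response curve.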

[5] = molecular target: PCSK9 (Homo sapiens, UniProt Q8NBP7, G670E/V474I); experiment: biochemical
PCSK9, sequence (Q8NBP7 with tags, fused parts or gaps V474I/G670E): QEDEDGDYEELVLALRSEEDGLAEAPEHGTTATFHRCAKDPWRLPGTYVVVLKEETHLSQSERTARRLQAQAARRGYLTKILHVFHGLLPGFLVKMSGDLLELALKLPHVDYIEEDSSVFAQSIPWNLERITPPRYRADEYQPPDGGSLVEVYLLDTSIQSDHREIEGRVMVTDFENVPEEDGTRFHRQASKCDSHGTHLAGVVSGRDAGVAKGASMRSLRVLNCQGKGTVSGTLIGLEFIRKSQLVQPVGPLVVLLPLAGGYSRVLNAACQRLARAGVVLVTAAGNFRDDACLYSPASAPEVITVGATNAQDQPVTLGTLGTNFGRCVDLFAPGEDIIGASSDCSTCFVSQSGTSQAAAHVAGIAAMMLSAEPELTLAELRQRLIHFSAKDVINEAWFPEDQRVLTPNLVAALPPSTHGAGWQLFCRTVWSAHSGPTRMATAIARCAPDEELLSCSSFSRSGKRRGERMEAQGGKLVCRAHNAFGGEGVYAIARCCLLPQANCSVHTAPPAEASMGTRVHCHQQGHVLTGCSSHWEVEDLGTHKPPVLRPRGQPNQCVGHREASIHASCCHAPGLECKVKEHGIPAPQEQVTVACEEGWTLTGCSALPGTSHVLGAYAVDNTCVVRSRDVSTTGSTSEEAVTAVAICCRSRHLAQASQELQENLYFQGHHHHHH

[6] = molecular target: T3, hERG potassium ion channel (Homo sapiens, UniProt Q12809); experiment: Assay 5 - hERG assay (SyncroPatch 384PE patch clamp, CHO cells); assay type: cell-based; details: human, CHO-K1 cells over-expressing hERG, pH 7.4, geometric mean, read-out: Assay 5 (hERG Hu CHO IF EPh CR-Syncro) GMean IC50
T3 construct: expressed in transfected cells; host or cells: Chinese hamster ovary K1 (CHO)
T3 sequence (Q12809 whole entry): as the sequence (Q12809 whole entry) above
Outline: as §1

| Molecule | decrease in LDL levels [1] | Kd [2] | IC50 [3] | IC50 [4] | IC50 [5] | IC50 [6] |
| --- | --- | --- | --- | --- | --- | --- |
| alirocumab | about 50% |  |  |  |  |  |
| Cc1ncc(N[C@H]2CC[C@H](Nc3ccc(N4C(=O)CN(C)C4=O)cn3)C2)nc1C [Example 22, 3-(6-(((1S,3S)-3-((5,6-Dimethylpyrazin-2-yl)amino)cyclopentyl)amino)pyridin-3-yl)-1-methylimidazolidine-2,4-dione] |  | 93 nM | > 40000 nM | > 10 µM | 107 nM |  |
| Cc1nc(N[C@H]2CC[C@H](Nc3cnc(OC(F)F)cn3)C2)ccc1-n1ccccc1=O [Example 97, 6′-(((1S,3S)-3-((5-(Difluoromethoxy)pyrazin-2-yl)amino)cyclopentyl)amino)-2′-methyl-2H-[1,3′-bipyridin]-2-one] |  | 26 nM |  | > 10 µM | 63 nM | 35400 nM |
| O=c1ccccn1-c1ccc(N[C@H]2CC[C@H](Nc3cnc4c(F)cccc4n3)C2)nc1 [Example 145, 6′-(((1S,3S)-3-((5-Fluoroquinoxalin-2-yl)amino)cyclopentyl)amino)-2H-[1,3′-bipyridin]-2-one] |  | 637 nM | 18500 nM | > 10 µM | 960 nM |  |
| CN1C(=O)CN(c2ccc(N[C@H]3CC[C@H](Nc4cnc(OC(F)F)cn4)C3)nc2)C1=O [Example 92, 1-(6-(((1S,3S)-3-((5-(Difluoromethoxy)pyrazin-2-yl)amino)cyclopentyl)amino)pyridin-3-yl)-3-methylimidazolidine-2,4-dione] |  | 52 nM | 4400 nM | > 10 µM | 59 nM |  |
| COc1cccc2ncc(N[C@H]3CC[C@H](Nc4ccc(-n5ccccc5=O)cn4)C3)nc12 [Example 144, 6′-(((1S,3S)-3-((8-Methoxyquinoxalin-2-yl)amino)cyclopentyl)amino)-2H-[1,3′-bipyridin]-2-one] |  | 336 nM | > 35000 nM | 2.34 µM | 484 nM |  |
| Cc1ncc(N[C@H]2CC[C@H](Nc3ccc(-n4ccccc4=O)cn3)C2)nc1C [Example 2, 6′-(((1S,3S)-3-((5,6-Dimethylpyrazin-2-yl)amino)cyclopentyl)amino)-2H-[1,3′-bipyridin]-2-one] |  | 64 nM | > 40000 nM | > 10 µM | 112 nM |  |
| CN1CCN(c2ccc(=O)n(-c3ccc(N[C@H]4CC[C@H](Nc5cnc(OC(F)F)cn5)C4)nc3)c2)CC1 [Example 81, 6′-(((1S,3S)-3-((5-(Difluoromethoxy)pyrazin-2-yl)amino)cyclopentyl)amino)-5-(4-methylpiperazin-1-yl)-2H-[1,3′-bipyridin]-2-one] |  | 66 nM | > 40000 nM | 0.498 µM | 202 nM |  |
